Laboratory results taken from ChEMBL document CHEMBL4417631, “Oral peptide inhibitors of interleukin-23 receptor and their use to treat inflammatory bowel diseases” (2017).
Where a SMILES comes first, the peptide text is derived from it.

Target: T1, Interleukin-23 receptor (Homo sapiens, UniProt Q5VWK5)
T1 sequence (Q5VWK5 whole entry): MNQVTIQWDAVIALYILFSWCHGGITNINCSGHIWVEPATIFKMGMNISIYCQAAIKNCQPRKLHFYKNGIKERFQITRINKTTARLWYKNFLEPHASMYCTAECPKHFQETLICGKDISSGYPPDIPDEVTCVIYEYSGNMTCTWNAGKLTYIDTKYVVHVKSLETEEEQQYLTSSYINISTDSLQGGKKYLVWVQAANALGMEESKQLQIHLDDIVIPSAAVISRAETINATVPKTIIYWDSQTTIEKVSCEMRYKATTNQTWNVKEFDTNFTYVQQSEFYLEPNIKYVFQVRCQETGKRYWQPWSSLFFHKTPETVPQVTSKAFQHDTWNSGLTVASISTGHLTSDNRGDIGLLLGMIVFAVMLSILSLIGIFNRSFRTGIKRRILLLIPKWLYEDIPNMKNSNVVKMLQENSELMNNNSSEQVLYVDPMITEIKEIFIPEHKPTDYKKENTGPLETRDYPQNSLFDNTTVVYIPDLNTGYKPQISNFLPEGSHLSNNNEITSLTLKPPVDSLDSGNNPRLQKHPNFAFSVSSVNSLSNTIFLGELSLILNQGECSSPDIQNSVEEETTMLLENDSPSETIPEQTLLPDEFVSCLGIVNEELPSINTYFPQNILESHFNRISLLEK
Experiment: Inhibition of interleukin-23 binding to human interleukin-23 receptor incubated for 2 hrs by competitive binding ELISA

SMILES | IC50
CC(=O)NC(=O)[C@@H](CCCCNC(=O)COCC(=O)NCCCC[C@@H](NCCC(=O)N[C@@H](CS)C(=O)N[C@@H](C)C(=O)N[C@@H](CC(=O)O)C(=O)N[C@@H](Cc1c[nH]c2ccccc12)C(=O)N[C@H](C(=O)N[C@@H](CS)C(=O)N[C@@H](Cc1ccc(O)cc1)C(=O)N[C@@H](Cc1c[nH]c2ccccc12)C(=O)N[C@@H](Cc1cnc[nH]1)C(=O)N[C@H](C(=O)N[C@@H](Cc1ccccc1)C(=O)NCC(=O)O)[C@@H](C)O)C(C)C)C(=O)NC(C)=O)NCCC(=O)N[C@@H](CS)C(=O)N[C@@H](C)C(=O)N[C@@H](CC(=O)O)C(=O)N[C@@H](Cc1c[nH]c2ccccc12)C(=O)N[C@H](C(=O)N[C@@H](CS)C(=O)N[C@@H](Cc1ccc(O)cc1)C(=O)N[C@@H](Cc1c[nH]c2ccccc12)C(=O)N[C@@H](Cc1cnc[nH]1)C(=O)N[C@H](C(=O)N[C@@H](Cc1ccccc1)C(=O)NCC(=O)O)[C@@H](C)O)C(C)C | > 10000 nM
CC(=O)N[C@@H](CS)C(=O)N[C@@H](C)C(=O)N[C@@H](CC(=O)O)C(=O)N[C@@H](Cc1c[nH]c2ccccc12)C(=O)N[C@H](C(=O)N[C@@H](CS)C(=O)N[C@@H](Cc1ccc(O)cc1)C(=O)N[C@@H](Cc1c[nH]c2ccccc12)C(N)=O)C(C)C | > 30000 nM
CC(=O)N[C@@H](CS)C(=O)N[C@@H](CCC(N)=O)C(=O)N[C@H](C(=O)N[C@@H](Cc1c[nH]c2ccccc12)C(=O)N[C@@H](CCC(N)=O)C(=O)N[C@@H](CS)C(N)=O)[C@@H](C)O (Ac-CQTWQC-NH2) | > 30000 nM
C[C@@H](O)[C@H](NC(=O)[C@H](CCC(N)=O)NC(=O)[C@@H](N)CS)C(=O)N[C@@H](Cc1c[nH]c2ccccc12)C(=O)N[C@@H](CCC(N)=O)C(=O)N[C@@H](CS)C(=O)N[C@@H](Cc1ccc(O)cc1)C(=O)N1Cc2ccccc2C[C@H]1C(=O)N[C@@H](CCCN)C(=O)N[C@@H](CCCCN)C(=O)N[C@@H](Cc1ccccc1)C(=O)NCC(=O)NCCOCC(=O)N[C@H](CCCCN)C(N)=O | > 30000 nM
CC(C)[C@H](NC(=O)[C@H](Cc1c[nH]c2ccccc12)NC(=O)[C@@H](NC(=O)[C@H](Cc1cnc[nH]1)NC(=O)[C@@H](N)CS)[C@@H](C)O)C(=O)N[C@@H](CS)C(=O)N[C@@H](Cc1ccc(O)cc1)C(=O)N[C@@H](Cc1c[nH]c2ccccc12)C(=O)N[C@@H](Cc1cnc[nH]1)C(=O)N[C@@H](CCC(=O)O)C(=O)N[C@@H](Cc1ccccc1)C(=O)N[C@@H](CO)C(N)=O (H-CHTWVCYWHEFS-NH2) | > 1000 nM
CC(C)[C@H](NC(=O)[C@H](Cc1c[nH]c2ccccc12)NC(=O)[C@H](CC(=O)O)NC(=O)[C@H](C)NC(=O)[C@@H](N)CS)C(=O)N[C@@H](CS)C(=O)N[C@@H](Cc1ccc(O)cc1)C(=O)N[C@@H](Cc1cccc2ccccc12)C(=O)N[C@@H](Cc1cnc[nH]1)C(=O)N[C@H](C(=O)N[C@H](Cc1ccccc1)C(=O)O)[C@@H](C)O | > 1000 nM
CC(=O)N[C@@H](CS)C(=O)N[C@@H](CCCCN)C(=O)N[C@@H](CC(=O)O)C(=O)N[C@@H](Cc1c[nH]c2ccccc12)C(=O)N[C@H](C(=O)N[C@@H](CS)C(=O)N[C@@H](Cc1ccc(O)cc1)C(=O)N[C@@H](Cc1c[nH]c2ccccc12)C(=O)N[C@@H](Cc1cnc[nH]1)C(=O)N[C@H](C(=O)N[C@@H](Cc1ccccc1)C(=O)NCC(=O)O)[C@@H](C)O)C(C)C | > 1000 nM
CC(C)[C@H](NC(=O)[C@H](Cc1c[nH]c2ccccc12)NC(=O)[C@H](CC(=O)O)NC(=O)[C@H](C)NC(=O)[C@@H](N)CS)C(=O)N[C@@H](CS)C(=O)N[C@@H](Cc1ccc(O)cc1)C(=O)N[C@@H](Cc1cccc2ccccc12)C(=O)N[C@@H](Cc1cnc[nH]1)C(=O)N[C@H](C(=O)N[C@@H](Cc1ccccc1)C(=O)N(C)CC(=O)O)[C@@H](C)O | > 1000 nM
CC(=O)N[C@@H](CS)C(=O)N[C@@H](CCC(N)=O)C(=O)N[C@H](C(=O)N[C@@H](Cc1c[nH]c2ccccc12)C(=O)N[C@@H](CCC(N)=O)C(=O)N[C@@H](CS)C(=O)N[C@@H](Cc1ccc(O)cc1)C(=O)N1Cc2ccccc2C[C@H]1CC(=O)N[C@@H](CCCNC(=N)N)C(=O)N[C@H](C(=O)N[C@@H](CC(N)=O)C(=O)NCC(=O)NCCOCC(=O)N[C@H](CCCCN)C(N)=O)C(C)C)[C@@H](C)O | > 30000 nM
CC(=O)N[C@H]1CCSC[C@@H](C(=O)N[C@@H](Cc2ccc(OCCN)cc2)C(=O)N[C@@H](Cc2ccc3ccccc3c2)C(=O)N[C@@](C)(CCCCN)C(=O)N[C@@H](CCC(=O)O)C(=O)N[C@@H](CC(N)=O)C(=O)NCC(N)=O)NC(=O)[C@H](CCC(N)=O)NC(=O)[C@@H]2Cc3ccccc3CN2C(=O)[C@H]([C@@H](C)O)NC(=O)[C@H](CCC(N)=O)NC1=O | > 3000 nM

Continued, values first:

IC50 | SMILES
> 1000 nM | CC(=O)N[C@@H](CS)C(=O)N[C@@H](CCCNC(=N)N)C(=O)N[C@@H](CC(=O)O)C(=O)N[C@@H](Cc1c[nH]c2ccccc12)C(=O)N[C@@H](CCC(N)=O)C(=O)N[C@@H](CS)C(=O)N[C@@H](Cc1ccc(O)cc1)C(=O)N[C@@H](Cc1c[nH]c2ccccc12)C(=O)N[C@H](CCCNC(=N)N)C(=O)N[C@H](CCCCN)C(=O)N[C@@H](Cc1ccccc1)C(=O)NCC(=O)NCCOCCC(=O)N[C@H](CCCCN)C(N)=O
40 nM | CC(=O)N[C@@H](CS)C(=O)N[C@@H](CCCCN)C(=O)N[C@H](C(=O)N[C@@H](Cc1c[nH]c2ccccc12)C(=O)N[C@@H](CCC(N)=O)C(=O)N[C@@H](CS)C(=O)N[C@@H](Cc1ccc(O)cc1)C(=O)N[C@@H](Cc1c[nH]c2ccccc12)C(=O)N[C@@H](CCCNC(=N)N)C(=O)N[C@H](C(=O)N[C@@H](Cc1ccccc1)C(=O)NCC(=O)NCCOCC(=O)N[C@H](CCCCN)C(N)=O)C(C)C)[C@@H](C)O
500 to 1000 nM | CC(=O)N[C@@H](CS)C(=O)N[C@@H](C)C(=O)N[C@@H](CC(=O)O)C(=O)N[C@@H](Cc1c[nH]c2ccccc12)C(=O)N[C@H](C(=O)N[C@@H](CS)C(=O)N[C@@H](Cc1ccc(O)cc1)C(=O)N[C@@H](Cc1c[nH]c2ccccc12)C(=O)N[C@@H](Cc1cnc[nH]1)C(=O)N[C@@H](Cc1ccccc1)C(=O)N[C@@H](Cc1cnc[nH]1)C(=O)N[C@@H](CCC(N)=O)C(=O)N[C@@H](CC(C)C)C(=O)N[C@@H](CCCNC(=N)N)C(=O)N[C@@H](CC(=O)O)C(=O)N[C@@H](C)C(N)=O)C(C)C (Ac-CADWVCYWHFHQLRDA-NH2)
> 1000 nM | CC(=O)N[C@@H](CS)C(=O)N[C@@H](C)C(=O)N[C@@H](CC(=O)O)C(=O)N[C@@H](Cc1c[nH]c2ccccc12)C(=O)N[C@H](C(=O)N[C@@H](CS)C(=O)N[C@@H](Cc1ccc(O)cc1)C(=O)N[C@@H](Cc1c[nH]c2ccccc12)C(=O)N(C)[C@@H](Cc1cnc[nH]1)C(=O)N[C@H](C(=O)N[C@@H](Cc1ccccc1)C(=O)NCC(=O)NCCOCC(=O)N[C@H](CCCCN)C(N)=O)[C@@H](C)O)C(C)C
> 1000 nM | CC(=O)N[C@@H](CS)C(=O)N[C@@H](CCC(N)=O)C(=O)N[C@H](C(=O)N[C@@H](Cc1c[nH]c2ccccc12)C(=O)N[C@@H](CCC(N)=O)C(=O)N[C@@H](CS)C(=O)N[C@@H](Cc1ccc(O)cc1)C(=O)N[C@@H](Cc1c[nH]c2ccccc12)C(=O)N[C@@H](CCCNC(=N)N)C(=O)N(C)[C@@H](CCCNC(=N)N)C(=O)N[C@@H](CC(N)=O)C(=O)NCC(=O)NCCOCC(=O)N[C@H](CCCCN)C(N)=O)[C@@H](C)O
500 to 1000 nM | CC(=O)NCC(=O)NCC(=O)N[C@H](C(=O)N[C@@H](CCC(=O)O)C(=O)N[C@@H](CS)C(=O)N[C@@H](CC(N)=O)C(=O)N[C@@H](CC(=O)O)C(=O)N[C@@H](Cc1c[nH]c2ccccc12)C(=O)N[C@@H](CCC(N)=O)C(=O)N[C@@H](CS)C(=O)N[C@@H](Cc1ccc(O)cc1)C(=O)N[C@@H](Cc1c[nH]c2ccccc12)C(=O)N[C@@H](Cc1cnc[nH]1)C(=O)N[C@H](C(=O)N[C@@H](Cc1ccccc1)C(=O)NCC(N)=O)[C@@H](C)O)C(C)C (Ac-GGVECNDWQCYWHTFG-NH2)
< 500 nM | CC(=O)N[C@@H](CS)C(=O)N[C@@H](C)C(=O)N[C@@H](CC(=O)O)C(=O)N[C@@H](Cc1c[nH]c2ccccc12)C(=O)N[C@H](C(=O)N[C@@H](CS)C(=O)N[C@@H](Cc1ccc(O)cc1)C(=O)N[C@@H](Cc1c[nH]c2ccccc12)C(=O)N[C@@H](Cc1cnc[nH]1)C(=O)N[C@H](C(=O)N[C@@H](Cc1ccc(O)cc1)C(=O)NCC(N)=O)[C@@H](C)O)C(C)C
1000 to 10000 nM | CC(=O)NC1CCC/C=C\CCC(C(=O)N[C@@H](Cc2ccc(O)cc2)C(=O)N[C@@H](Cc2c[nH]c3ccccc23)C(=O)N[C@@H](CCCNC(=N)N)C(=O)N[C@@H](CCCCN)C(=O)N[C@@H](Cc2ccccc2)C(=O)NCC(=O)NCCOCC(=O)N[C@H](CCCCN)C(N)=O)NC(=O)[C@H](CCC(N)=O)NC(=O)[C@H](Cc2c[nH]c3ccccc23)NC(=O)[C@H]([C@@H](C)O)NC(=O)[C@H](CCCNC(=N)N)NC1=O (stereo not given in full)
500 to 1000 nM | C[C@@H](O)[C@H](NC(=O)[C@@H](N)CS)C(=O)N[C@@H](CC(=O)O)C(=O)N[C@@H](Cc1c[nH]c2ccccc12)C(=O)N[C@@H](CCCCN)C(=O)N[C@@H](CS)C(=O)N[C@@H](Cc1ccc(O)cc1)C(=O)N[C@@H](Cc1c[nH]c2ccccc12)C(=O)N[C@@H](Cc1cnc[nH]1)C(=O)N[C@@H](CCC(=O)O)C(=O)N[C@@H](Cc1ccccc1)C(=O)NCC(N)=O (H-CTDWKCYWHEFG-NH2)
97 to 239 nM | CC(=O)N[C@@H](CS)C(=O)N[C@@H](CCC(N)=O)C(=O)N[C@H](C(=O)N[C@@H](Cc1c[nH]c2ccccc12)C(=O)N[C@@H](CCC(N)=O)C(=O)N[C@@H](CS)C(=O)N[C@@H](Cc1ccc(O)cc1)C(=O)N[C@@H](Cc1c[nH]c2ccccc12)C(=O)N[C@@H](CCC(C)C)C(=O)N[C@@H](CCC(=O)O)C(=O)N[C@@H](CC(N)=O)C(=O)NCC(=O)N1CCC[C@H]1C(N)=O)[C@@H](C)O
